Assay [1] has as its target KIT(L576P) (Homo sapiens, UniProt P10721, L576P). Kind of assay: biochemical. The following applies: read-out: Percent control.
Assay [2] addresses TIE2 (Homo sapiens, UniProt Q02763). The following applies: 10 μM.
For assay [3], the target named is EPHA5 (Homo sapiens, UniProt P54756). The following applies: 10 μM.
Assay [4] deals with T1, FLT3(K663D) (Homo sapiens, UniProt P36888, K663Q).
T1 sequence (P36888 564-993 K663Q limits assumed): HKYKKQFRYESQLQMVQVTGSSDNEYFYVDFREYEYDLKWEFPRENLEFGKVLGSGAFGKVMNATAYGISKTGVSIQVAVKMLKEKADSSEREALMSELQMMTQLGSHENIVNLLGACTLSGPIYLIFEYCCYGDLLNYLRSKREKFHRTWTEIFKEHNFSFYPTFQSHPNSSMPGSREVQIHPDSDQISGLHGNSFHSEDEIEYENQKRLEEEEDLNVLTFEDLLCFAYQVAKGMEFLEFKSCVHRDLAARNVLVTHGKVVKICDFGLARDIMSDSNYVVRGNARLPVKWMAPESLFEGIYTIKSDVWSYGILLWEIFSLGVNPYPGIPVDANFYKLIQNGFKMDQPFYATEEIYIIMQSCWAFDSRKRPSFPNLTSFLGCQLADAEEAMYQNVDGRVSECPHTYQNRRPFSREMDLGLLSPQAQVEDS

Assay [5] concerns the target ROS1 (Homo sapiens, UniProt P08922). The settings on record: 10 μM.
In assay [6] the target is T2, EPHB2 (Homo sapiens, UniProt P29323).
T2 sequence (P29323 19-1055): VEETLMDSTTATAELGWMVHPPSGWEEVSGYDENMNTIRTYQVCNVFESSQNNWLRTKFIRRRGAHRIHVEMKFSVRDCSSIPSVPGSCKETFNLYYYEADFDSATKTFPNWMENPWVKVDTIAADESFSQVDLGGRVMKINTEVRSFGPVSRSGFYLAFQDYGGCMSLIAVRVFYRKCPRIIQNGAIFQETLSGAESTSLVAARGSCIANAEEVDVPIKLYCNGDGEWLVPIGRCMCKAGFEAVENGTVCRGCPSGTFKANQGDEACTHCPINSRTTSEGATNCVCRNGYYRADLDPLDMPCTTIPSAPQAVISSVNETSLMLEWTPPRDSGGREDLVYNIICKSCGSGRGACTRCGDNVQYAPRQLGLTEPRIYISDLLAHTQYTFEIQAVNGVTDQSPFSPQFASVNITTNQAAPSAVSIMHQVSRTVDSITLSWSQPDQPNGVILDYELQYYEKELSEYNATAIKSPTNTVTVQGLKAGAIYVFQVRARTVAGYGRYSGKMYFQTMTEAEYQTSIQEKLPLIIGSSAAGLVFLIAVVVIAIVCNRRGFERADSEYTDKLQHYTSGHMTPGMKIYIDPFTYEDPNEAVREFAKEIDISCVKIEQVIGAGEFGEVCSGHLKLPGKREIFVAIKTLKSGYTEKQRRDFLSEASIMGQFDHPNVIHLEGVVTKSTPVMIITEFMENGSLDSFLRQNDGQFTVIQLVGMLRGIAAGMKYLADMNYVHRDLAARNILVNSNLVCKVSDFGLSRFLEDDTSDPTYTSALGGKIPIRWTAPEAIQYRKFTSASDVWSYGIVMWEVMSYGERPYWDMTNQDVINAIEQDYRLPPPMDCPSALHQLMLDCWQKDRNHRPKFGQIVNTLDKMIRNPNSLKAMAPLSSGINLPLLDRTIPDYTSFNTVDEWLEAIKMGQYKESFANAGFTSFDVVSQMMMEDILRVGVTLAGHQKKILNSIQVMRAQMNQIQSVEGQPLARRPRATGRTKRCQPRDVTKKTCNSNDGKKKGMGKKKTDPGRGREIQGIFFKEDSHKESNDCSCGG
The following applies: 10 μM.

Assay [7] deals with FGFR1 (Homo sapiens, UniProt P11362). The following applies: 10 μM.
FGFR1, sequence (P11362 22-822): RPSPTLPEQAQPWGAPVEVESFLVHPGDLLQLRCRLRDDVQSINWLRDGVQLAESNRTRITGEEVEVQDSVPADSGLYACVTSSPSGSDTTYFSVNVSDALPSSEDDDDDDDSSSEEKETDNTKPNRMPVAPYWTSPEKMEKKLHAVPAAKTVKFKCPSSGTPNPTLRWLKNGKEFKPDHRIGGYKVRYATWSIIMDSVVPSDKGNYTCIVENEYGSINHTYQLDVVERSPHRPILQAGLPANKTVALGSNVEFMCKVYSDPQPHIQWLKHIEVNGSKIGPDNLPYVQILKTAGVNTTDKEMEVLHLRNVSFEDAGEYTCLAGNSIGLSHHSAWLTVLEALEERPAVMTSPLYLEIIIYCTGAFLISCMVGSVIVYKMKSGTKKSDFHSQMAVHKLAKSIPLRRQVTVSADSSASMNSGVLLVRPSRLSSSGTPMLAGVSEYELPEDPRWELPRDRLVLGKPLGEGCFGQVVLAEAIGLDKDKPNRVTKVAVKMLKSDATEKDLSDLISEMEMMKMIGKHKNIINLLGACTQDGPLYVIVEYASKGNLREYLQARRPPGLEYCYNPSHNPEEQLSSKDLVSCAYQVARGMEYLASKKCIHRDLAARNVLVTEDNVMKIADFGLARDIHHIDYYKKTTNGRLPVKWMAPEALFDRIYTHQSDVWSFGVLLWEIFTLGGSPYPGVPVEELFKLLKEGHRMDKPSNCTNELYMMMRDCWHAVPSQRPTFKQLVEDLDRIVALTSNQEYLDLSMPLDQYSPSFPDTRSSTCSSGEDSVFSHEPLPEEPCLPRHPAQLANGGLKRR
Assay [8] concerns the target T3, FLT3(D835Y) (Homo sapiens, UniProt P36888, D835Y).
T3 sequence (P36888 27-993 D835Y): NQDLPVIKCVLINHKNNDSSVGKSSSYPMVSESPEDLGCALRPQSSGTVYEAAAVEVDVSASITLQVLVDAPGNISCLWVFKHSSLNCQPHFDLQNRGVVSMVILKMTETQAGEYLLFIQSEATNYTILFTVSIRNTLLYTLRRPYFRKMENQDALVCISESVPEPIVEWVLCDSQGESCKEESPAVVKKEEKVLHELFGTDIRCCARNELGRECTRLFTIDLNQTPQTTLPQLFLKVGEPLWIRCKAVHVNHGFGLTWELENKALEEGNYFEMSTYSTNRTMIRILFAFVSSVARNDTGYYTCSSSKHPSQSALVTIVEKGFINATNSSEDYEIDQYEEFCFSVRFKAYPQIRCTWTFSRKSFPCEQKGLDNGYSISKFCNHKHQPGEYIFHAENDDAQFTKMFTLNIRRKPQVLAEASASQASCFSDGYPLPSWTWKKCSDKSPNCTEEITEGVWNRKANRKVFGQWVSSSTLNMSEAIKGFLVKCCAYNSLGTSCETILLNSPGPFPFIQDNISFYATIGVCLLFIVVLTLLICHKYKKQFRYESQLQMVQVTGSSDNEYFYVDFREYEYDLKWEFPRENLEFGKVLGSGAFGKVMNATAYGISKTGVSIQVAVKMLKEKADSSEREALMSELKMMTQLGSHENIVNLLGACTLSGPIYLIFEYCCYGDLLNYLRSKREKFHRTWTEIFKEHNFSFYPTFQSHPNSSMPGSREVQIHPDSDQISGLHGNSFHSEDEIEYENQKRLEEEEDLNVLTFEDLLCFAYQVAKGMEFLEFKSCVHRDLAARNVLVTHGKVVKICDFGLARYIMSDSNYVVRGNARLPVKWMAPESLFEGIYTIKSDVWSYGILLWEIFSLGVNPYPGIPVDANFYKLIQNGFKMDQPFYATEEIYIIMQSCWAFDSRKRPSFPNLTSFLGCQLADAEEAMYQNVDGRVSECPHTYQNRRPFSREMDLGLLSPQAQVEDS

Read-outs that look alike come from different tables or passages of the source.

EPHA5, sequence (P54756 25-1037): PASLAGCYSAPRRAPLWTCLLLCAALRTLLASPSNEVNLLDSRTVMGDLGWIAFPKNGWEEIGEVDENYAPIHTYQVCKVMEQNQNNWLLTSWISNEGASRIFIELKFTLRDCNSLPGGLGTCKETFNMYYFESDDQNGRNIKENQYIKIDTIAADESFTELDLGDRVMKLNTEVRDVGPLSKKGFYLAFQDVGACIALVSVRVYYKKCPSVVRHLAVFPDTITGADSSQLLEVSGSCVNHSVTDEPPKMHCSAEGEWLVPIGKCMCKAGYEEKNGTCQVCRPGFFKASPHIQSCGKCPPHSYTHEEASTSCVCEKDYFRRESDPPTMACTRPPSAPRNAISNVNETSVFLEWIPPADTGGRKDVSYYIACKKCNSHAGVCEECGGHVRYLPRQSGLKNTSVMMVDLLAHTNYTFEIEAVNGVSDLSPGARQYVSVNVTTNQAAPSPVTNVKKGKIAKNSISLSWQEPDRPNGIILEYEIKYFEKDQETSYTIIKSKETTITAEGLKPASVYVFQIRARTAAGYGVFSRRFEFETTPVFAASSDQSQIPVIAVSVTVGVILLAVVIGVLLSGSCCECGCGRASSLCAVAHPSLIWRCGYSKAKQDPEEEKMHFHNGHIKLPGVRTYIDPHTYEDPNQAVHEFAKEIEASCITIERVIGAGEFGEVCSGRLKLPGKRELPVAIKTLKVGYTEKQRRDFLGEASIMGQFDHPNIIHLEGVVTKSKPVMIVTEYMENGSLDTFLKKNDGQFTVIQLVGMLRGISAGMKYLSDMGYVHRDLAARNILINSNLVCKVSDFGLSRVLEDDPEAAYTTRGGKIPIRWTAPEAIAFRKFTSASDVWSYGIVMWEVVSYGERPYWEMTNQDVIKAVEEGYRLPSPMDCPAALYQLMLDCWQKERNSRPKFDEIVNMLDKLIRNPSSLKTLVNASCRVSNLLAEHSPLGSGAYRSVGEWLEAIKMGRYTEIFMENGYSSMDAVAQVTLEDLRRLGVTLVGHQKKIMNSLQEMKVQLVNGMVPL
KIT(L576P), sequence (P10721 26-976 L576P): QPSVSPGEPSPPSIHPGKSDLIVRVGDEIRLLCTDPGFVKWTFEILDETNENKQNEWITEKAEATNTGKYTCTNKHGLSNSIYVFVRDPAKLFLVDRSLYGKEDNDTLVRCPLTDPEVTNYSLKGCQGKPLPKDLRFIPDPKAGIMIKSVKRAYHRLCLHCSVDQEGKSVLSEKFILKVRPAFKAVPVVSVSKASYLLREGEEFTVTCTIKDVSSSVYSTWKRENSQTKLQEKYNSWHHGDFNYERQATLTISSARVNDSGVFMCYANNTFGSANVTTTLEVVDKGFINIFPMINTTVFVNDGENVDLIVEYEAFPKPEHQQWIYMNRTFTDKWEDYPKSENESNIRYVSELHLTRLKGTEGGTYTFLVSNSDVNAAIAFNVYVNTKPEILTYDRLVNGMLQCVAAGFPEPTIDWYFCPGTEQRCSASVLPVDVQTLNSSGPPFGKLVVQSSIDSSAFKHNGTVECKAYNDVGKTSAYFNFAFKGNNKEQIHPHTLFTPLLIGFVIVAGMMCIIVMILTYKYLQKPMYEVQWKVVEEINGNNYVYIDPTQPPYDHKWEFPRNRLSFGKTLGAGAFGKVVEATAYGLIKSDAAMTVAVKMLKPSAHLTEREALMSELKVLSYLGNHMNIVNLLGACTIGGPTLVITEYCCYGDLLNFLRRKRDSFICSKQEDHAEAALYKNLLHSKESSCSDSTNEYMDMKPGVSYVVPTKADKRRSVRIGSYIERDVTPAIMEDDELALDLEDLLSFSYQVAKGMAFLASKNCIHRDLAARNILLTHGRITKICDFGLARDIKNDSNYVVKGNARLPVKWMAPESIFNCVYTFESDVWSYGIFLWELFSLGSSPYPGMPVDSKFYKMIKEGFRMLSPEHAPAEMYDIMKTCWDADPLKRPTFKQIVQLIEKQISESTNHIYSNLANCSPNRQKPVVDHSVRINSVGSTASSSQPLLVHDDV
TIE2, sequence (Q02763 23-1124): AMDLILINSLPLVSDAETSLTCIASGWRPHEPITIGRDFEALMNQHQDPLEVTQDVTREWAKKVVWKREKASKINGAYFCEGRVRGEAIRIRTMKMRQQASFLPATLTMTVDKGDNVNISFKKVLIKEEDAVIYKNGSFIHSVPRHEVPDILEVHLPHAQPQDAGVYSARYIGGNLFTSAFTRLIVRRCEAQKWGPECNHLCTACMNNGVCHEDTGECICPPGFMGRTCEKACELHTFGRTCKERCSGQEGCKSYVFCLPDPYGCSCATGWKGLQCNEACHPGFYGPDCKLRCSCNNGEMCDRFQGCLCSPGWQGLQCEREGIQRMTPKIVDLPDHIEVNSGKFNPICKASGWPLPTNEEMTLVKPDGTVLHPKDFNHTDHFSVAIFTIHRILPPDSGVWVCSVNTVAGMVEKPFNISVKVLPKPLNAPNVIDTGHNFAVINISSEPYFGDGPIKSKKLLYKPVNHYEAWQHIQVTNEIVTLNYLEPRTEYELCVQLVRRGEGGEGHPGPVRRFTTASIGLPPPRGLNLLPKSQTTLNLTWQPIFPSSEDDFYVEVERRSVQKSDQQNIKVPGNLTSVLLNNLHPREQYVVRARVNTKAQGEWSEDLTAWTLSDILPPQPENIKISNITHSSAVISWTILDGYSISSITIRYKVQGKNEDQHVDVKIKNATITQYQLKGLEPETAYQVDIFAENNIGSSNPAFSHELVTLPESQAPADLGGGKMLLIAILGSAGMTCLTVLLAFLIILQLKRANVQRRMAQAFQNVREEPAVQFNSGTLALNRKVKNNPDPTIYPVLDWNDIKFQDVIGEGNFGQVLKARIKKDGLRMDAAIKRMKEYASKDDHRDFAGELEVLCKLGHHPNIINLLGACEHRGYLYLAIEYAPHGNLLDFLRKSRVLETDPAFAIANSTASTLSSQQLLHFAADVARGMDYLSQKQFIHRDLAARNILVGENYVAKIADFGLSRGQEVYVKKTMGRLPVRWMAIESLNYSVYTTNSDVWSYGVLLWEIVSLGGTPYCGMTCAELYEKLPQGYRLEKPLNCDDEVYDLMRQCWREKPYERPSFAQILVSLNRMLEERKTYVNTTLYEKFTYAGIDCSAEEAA

With `C#Cc1cccc(Nc2ncnc3cc(OCCOC)c(OCCOC)cc23)c1` [Erlotinib], in assay [1], the remaining activity at 10 µM turned out to be 25.9%.

As for `Cc1ccc(NC(=O)c2ccc(CN3CCN(C)CC3)cc2)cc1Nc1nccc(-c2cccnc2)[n+]1[Pt-2]1([Cl])[NH2+]C2CCCCC2[NH2+]1` (stereo not shown) [1b, oxaliplatin-imatinib], the Percent control in assay [2] is 94%; in assay [3] it was 100%; in assay [4] (FLT3(K663D), 10 μM), 84%; in assay [5], 32%; in assay [6] it was 95%; in assay [7] it was 96%. For the same compound, in assay [8] (FLT3(D835Y), 10 μM), the Percent control is on record as 81%.

`COc1cc2c(Nc3ccc(Br)cc3F)ncnc2cc1OCC1CCN(C)CC1` [Vandetanib, reference compound]: in assay [1], the remaining activity at 10 µM was determined as 1.4%.

As for `COc1cc2c(Nc3ccc(Br)cc3F)[n+]([Pt-2]3([Cl])[NH2+]C4CCCCC4[NH2+]3)cnc2cc1OCC1CCN(C)CC1` (stereo not shown) [3b, oxaliplatin-vandetanib], the Percent control in assay [2] amounted to 49%; in assay [3] it was 78%; in assay [4] it was 43; in assay [5], 74%; in assay [6], 69%; in assay [8] it was 46.

As to `C#Cc1cccc(Nc2c3cc(OCCOC)c(OCCOC)cc3nc[n+]2[Pt@SP2-2]([NH3+])([NH3+])[Cl])c1` [2a, cisplatin-erlotinib], the Percent control in assay [2] was determined as 94%; in assay [3], 100%; in assay [4] it was 67; in assay [5] it was 91%; in assay [6], 94%; in assay [7] it was 77%. Moreover, the Percent control in assay [8] is listed as 21.

Turning to `Cc1ccc(NC(=O)c2ccc(CN3CCN(C)CC3)cc2)cc1Nc1nccc(-c2cccnc2)n1` [Imatinib, reference compound], the Percent control in assay [2] is listed as 100%; in assay [4] (FLT3(K663D), 10 μM), 100%; in assay [5], 100%; in assay [7], 100%; in assay [8] (FLT3(D835Y), 10 μM), 100%. In assay [1], the remaining activity at 10 µM was found to be 0.1%.

The values above are taken from publication PMC4858680, “A platinum-based hybrid drug design approach to circumvent acquired resistance to molecular targeted tyrosine kinase inhibitors” (Scientific Reports, 2016).
